Results taken from patent publication US12685775B2, “Oligonucleotides with nucleoside analogs” (Sirnaomics, Inc., priority 2019, dated 2026).
“Also recorded” adds a separate entry of the source. Read-outs that look alike come from different tables or passages of the source. Each block holds one compound with its values, some of them ahead of it.

Columns and labels:
Format in all cases: cell-based
BxPC3 cells [1] = assay: BxPC3 cell viability 96 h after transfection/treatment, Cell Titer Glo (Examples 2 and 3); details: for IC50: read-out: IC50, inhibition of cell viability; for inhibition in cell viability at 0.1 nM: BxPC3, 0.1 nM, GEM-modified siRNAs
Protocol: (§1) Pancreatic cancer BxPC3 cells were seeded at 1000 cells/ml and grown as monolayers in 384 well plates. The cells were transfected with the siRNAs indicated against CHK1 or Rad17 using Lipofectamine (ThermoFisher) or were treated with gemcitabine at the concentrations indicated on the X axis. After a 96 h incubation at 37° C. with 5% CO2, cell viability was determined using Cell Titer Glo (Perkin Elmer) by monitoring the luminescence signal produced by the reagent in a Perkin Elmer Envision plate reader equipped with Ultrasensitive luminescence detection optics. From the figure we can see that gemcitabine (GEM) produces a dose-dependent inhibition of cell viability with an IC50 of ~6 nM and maximal efficacy of >80% cell killing. A 25mer blunt ended siRNA against RAD17 produced a dose dependent inhibition in cell viability with a maximum efficacy at only 60% reduction in cell viability and an IC50 of ~5 nM. […] The IC50 for the latter siRNA was similar to that for the Azorsa sequence (~0.3 nM).
SiRNAs were synthesized with gemcitabine nucleotide amidites added at the 3′ end of each of the Sense strands for the siRNA sequences indicated. SiRNAs were transfected into the cells and incubated as detailed in FIG. 1. Maximal efficacy of all sequences was now improved to >95% inhibition of cell viability at concentrations above 10 nM. […] The gemcitabine nucleotides was examined to see if it could replace the Cytidine nucleotides within the siRNA sequence. […] FIGS. 12a-12d show the effect of adding 2 gemcitabine nucleotides at the 3′ end of the Sense strand of each siRNA on potency and efficacy.

[2] = test system: BxPC3 pancreatic cancer cell; assay: cells; details: for IC50: BxPC3, 120 h exposure, read-out: IC50, cell viability
Protocol: The siRNA sequences shown in Table 2 were tested for efficacy and potency against BxPC3 pancreatic cancer cell viability after 120 h exposure.

MiaPaca-2 = MiaPaca-2 cell viability, 96 h exposure (Examples 8 and 9); details: for maximal inhibition of cell viability: 96 h
Protocol: as §1
Using gemcitabine or the same unmodified siRNAs and exposure time (96 h) as used against BxPC3 cells (FIG. 1), we studied the effect on another pancreatic cancer cell line—MiaPaca-2.

BxPC3 cells [3] = assay: BxPC3 cell viability after 72 hrs treatment, CTG2 reagent (Example 1); details: Homo sapiens, BXPC-3, BxPC3, 72 h
Protocol: BxPC3 cells were seeded in two 384-well plates at 500 cells/well. On the next day cells were treated with various concentrations of CID2A, CID2S, CID4 siRNAs (formulated with Lipofectamine RNAiMAX) or gemcitabine (0.1-1000 nM) for 72 hrs. After incubation at 37° C. for 72 hrs, the number of viable cells was assessed using CTG2 reagent. Non-treated cells were set as 100%.

BxPC3 cells [4] = assay: BxPC3 cell viability after 120 h exposure, Cell Titer Glo (Example 4, polyGEM constructs)
Protocol: BxPC3 cells seeded in 384 well plates at 1000 cells/well were transfected with siRNA constructs or exposed to gemcitabine at the concentrations indicated in the figure. The samples tested were gemcitabine alone (GEM), the unmodified 19mer siRNA against CHK1 (CHK-AZ) and the same sequences of the siRNA but with either 2 (poly-2), 4 (poly-4) or 6 (poly-6) gemcitabine nucleotides added at the 3′ end of the Sense strand prior to annealing with the same antisense strand. After 120 h exposure to the various agents, the cell viability was determined by addition of Cell Titer Glo (PE), plates were shaken for 10-20 mins and then luminescence signal correlating with cell viability was determined in a PE Envision plate reader.
It was reasoned that, since such an improvement in efficacy against pancreatic cancer cell viability was obtained when adding 2 GEM nucleotides onto the SS of an siRNA, then adding additional GEMs would further improve the efficacy and/or potency of the siRNAs. To this end the unmodified 19mer siRNA (CHK-AZ) was compared with the same sequence where 2Gems were added at the 3′ end of the SS (poly-2), 4GEMs were added (poly-4) or 6 GEMs were added (poly-6). These sequences were compared with gemcitabine alone (GEM). The experiment was performed by transfection of the siRNAs in BxPC3 cells as for FIG. 1 but the exposure time prior to measurement of cell viability was 120 h. […]

BxPC3 cells [5] = assay: Screen of siRNA sequences designed against CHK1: % viable cells 72 h after transfection, BxPC3
Protocol: (§2) The percentage of viable cells 72 h after transfection of the siRNA sequences into cells in culture is shown (top panel—BxPC3 cells; lower panel—CFPAC cells). 100% viability is defined as that in the presence of a NON-silencing control siRNA (NS). CHK1_AZ (AZ) was tested as a comparator. CD=Cell Death siRNAs—known to produce maximal killing of many cell types when transfected into cells.

CFPAC cells = assay: Screen of siRNA sequences designed against CHK1: % viable cells 72 h after transfection, CFPAC
Protocol: as §2

CHK1 = assay: siRNA validation of target silencing (qRTPCR); details: previous studies
Protocol: These experiments were performed using the siRNAs shown below. The degree of gene target silencing was measured in cells transfected with the siRNAs at (50 nM) and the degree of gene silencing was measured using qRTPCR (using Beta-actin as a control housekeeping gene for normalization of the data).

Compound: SLP49-1: Unmodified 25mer blunt ended CHK1 siRNA, sense CCUGUGGAAUAGUACUUACUGCAAU (SEQ ID NO: 18) (antisense AUUGCAGUAAGUACUAUUCCACAGG; unmodified RNA)
inhibition of cell viability at 100 nM (BxPC3 cells [1]; BxPC3, 96 h, 100 nM): ~ 90% | IC50 (BxPC3 cells [1]; BxPC3, 96 h): ~0.3 nM | Efficacy at 100 nM ([2]; BxPC3, 120 h, 100 nM): 90% | IC50 [2]: 0.25 nM | maximal inhibition of cell viability (MiaPaca-2; listed as 25mer blunt ended siRNA designed against CHK1): ~ 80% | maximal inhibition of cell viability (MiaPaca-2; listed as Chk1_de): 80%

IC50 (BxPC3 cells [3]; no Lipofectamine, read-out: IC50, reduction in cell viability): ~7 nM | IC50 (BxPC3 cells [1]; Homo sapiens, BXPC-3, BxPC3, 96 h): ~6 nM | IC50 (BxPC3 cells [4]; Homo sapiens, BXPC-3, BxPC3, 120 h exposure): 3 nM | IC50 ([2]; Homo sapiens, BXPC-3): ~5 nM
Compound: Nc1ccn([C@@H]2O[C@H](CO)[C@@H](O)C2(F)F)c(=O)n1 [gemcitabine, 2′,2′-difluoro 2′-deoxycytidine, reference compound]
viability at 0.05 µM (BxPC3 cells [3]; 50 nM): 26% | maximal efficacy (reduction/inhibition of cell viability, cell killing) (BxPC3 cells [1]; BxPC3, 96 h): > 80% | reduction in cell viability at concentrations above 50 nM (BxPC3 cells [4]; BxPC3, 120 h, >50 nM): 100% | maximal efficacy, inhibition of cell viability ([2]; human, 120 h, 100 nM): ~ 85% | inhibition at 0.1 µM (MiaPaca-2; Homo sapiens, MIA PaCa-2, 100 nM, read-out: maximal inhibition at 100 nM): 90%

Compound: SLP49-5: CHK1 siRNA, SS shortened by first 2 bases, 3 GEMs in place of Cs (SEQ ID NO: 20) (sense UGUGGAAUAGUACUUACUGCAAU; antisense AUUGCAGUAAGUACUAUUCCACAGG; three gemcitabines replace cytidines in sense strand, positions not given here)
efficacy (inhibition of cell viability / cell killing) at 30 nM [2]: 83-97% | IC50 [2]: ~3 nM

Compound: SLP49-3: Unlabeled 25mer blunt ended siRNA against RAD17, sense CCAACAAUUAUGAUGAAAUUUCUUA (SEQ ID NO: 23) (antisense UAAGAAAUUUCAUCAUAAUUGUUGG; further chemistry not given here)
maximal efficacy (reduction/inhibition of cell viability, cell killing) (BxPC3 cells [1]; BxPC3, 96 h): 60% | maximal efficacy (reduction/inhibition of cell viability, cell killing) (BxPC3 cells [1]; BxPC3, 96 h, listed as RAD17 siRNA): ~ 60% | IC50 (BxPC3 cells [1]; BxPC3, 96 h): ~5 nM | maximal efficacy, inhibition of cell viability [2]: 60% | IC50 [2]: ~4 nM | maximal inhibition of cell viability (MiaPaca-2; listed as RAD17 siRNA): ~ 30% | maximal inhibition of cell viability (MiaPaca-2; listed as unmodified 25mer siRNA targeting RAD17): ~ 25%

Compound: SLP49-6: CHK1 siRNA, SS shortened by first 2 bases, containing 2 Gems (SEQ ID NO: 21) (sense UGUGGAAUAGUACUUACUGCAAUCC; antisense AUUGCAGUAAGUACUAUUCCACAGG; sense strand contains two gemcitabines, positions not given here, further chemistry not given here)
efficacy (inhibition of cell viability / cell killing) at 30 nM [2]: 83-97% | IC50 [2]: ~3 nM

Compound: CHK_4: siRNA designed against CHK1, sense strand CCTGTGGAATAGTACTTACTGCAAT (SEQ ID NO: 9); same sequence as SLP49-1 (antisense strand not cited, further chemistry not given here)
potency on BxPC3 cell viability (BxPC3 cells [5]): most potent effect; also recorded: greater potency than CHK-AZ | % viable BxPC3 cells at 72 h (BxPC3 cells [5]; 100% = non-silencing control siRNA): 24% | potency on BxPC3 cell viability (BxPC3 cells [5]; listed as #4): #4 sequence CCTGTGGAATAGTACTTACTGCAAT (SEQ ID NO: 9) seemed to be the best. | effect on CFPAC cell viability (CFPAC cells): very pronounced effect on cell viability | silencing of CHK1 gene (CHK1): better silencing than the Azorsa sequence

Compound: SLP49-4: RAD17 25mer siRNA with 2 additional GEMs attached at the 3′ end of the SS (SEQ ID NO: 24) (sense CCAACAAUUAUGAUGAAAUUUCUUACC; antisense UAAGAAAUUUCAUCAUAAUUGUUGG; 25mer siRNA, two gemcitabine nucleotides added at sense strand 3' end, further chemistry not given here)
inhibition in cell viability at 0.1 nM (BxPC3 cells [1]): no effect on cell viability | efficacy (inhibition of cell viability / cell killing) at 30 nM [2]: 100% | IC50 [2]: ~4 nM | inhibition at 30 nM (MiaPaca-2; 30 nM): 93%

Compound: SLP49-2: 25mer CHK1 siRNA with 2 GEMs attached at the 3′ end of the Sense Strand (SEQ ID NO: 19) (sense CCUGUGGAAUAGUACUUACUGCAAUCC; antisense AUUGCAGUAAGUACUAUUCCACAGG; 25mer siRNA, two gemcitabine nucleotides added at sense strand 3' end, further chemistry not given here)
inhibition in cell viability at 0.1 nM (BxPC3 cells [1]): 31% | efficacy (inhibition of cell viability / cell killing) at 30 nM [2]: ~ 100% | maximal inhibition at 10 nM (MiaPaca-2; 10 nM): ~ 100%
